Laboratory results taken from patent US10208019B2, “GLP-1 receptor agonists and uses thereof” (Pfizer Inc., priority 2016, dated 2019).
Read-outs that look alike come from different tables or passages of the source.

Assays:
human GLP-1R [1] = molecular target: human GLP-1R (Homo sapiens, UniProt P43220, G168S); assay: CHO GLP-1R Clone H6—Assay 1: HTRF cAMP cell-based functional agonist assay (high GLP-1R density); settings: for EC50: CHO GLP-1R Clone H6, cAMP HTRF, geometric mean; for Emax: read-out: Assay 1 Emax (%), CHO GLP-1R Clone H6, relative to saturating concentration of full agonist GLP-1 (1 μM), arithmetic mean
Sequence of human GLP-1R (Homo sapiens, UniProt P43220, G168S) (P43220 24-463 G168S limits assumed): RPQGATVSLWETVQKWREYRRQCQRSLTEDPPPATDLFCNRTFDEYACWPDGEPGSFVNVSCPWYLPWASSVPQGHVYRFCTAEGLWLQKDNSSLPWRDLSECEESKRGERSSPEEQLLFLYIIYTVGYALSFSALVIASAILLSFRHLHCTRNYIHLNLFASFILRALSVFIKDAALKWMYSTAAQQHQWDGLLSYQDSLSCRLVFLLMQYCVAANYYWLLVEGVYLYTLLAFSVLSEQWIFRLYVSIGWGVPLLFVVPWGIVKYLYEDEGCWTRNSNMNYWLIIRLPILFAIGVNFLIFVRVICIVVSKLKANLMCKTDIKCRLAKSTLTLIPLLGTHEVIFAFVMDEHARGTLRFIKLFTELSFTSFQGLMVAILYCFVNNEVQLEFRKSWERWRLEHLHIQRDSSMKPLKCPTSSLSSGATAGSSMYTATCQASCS

human GLP-1R [2] = molecular target: human GLP-1R (Homo sapiens (Human), UniProt P43220, L260F); assay: CHO GLP-1R Clone C6—Assay 2: HTRF cAMP cell-based functional agonist assay (low GLP-1R density); settings: for EC50: CHO GLP-1R Clone C6, cAMP HTRF, geometric mean; for Emax: CHO GLP-1R Clone C6, relative to saturating concentration of full agonist GLP-1 (1 μM), arithmetic mean, read-out: Assay 2 Emax (%)
Sequence of human GLP-1R (Homo sapiens (Human), UniProt P43220, L260F) (P43220 24-463 L260F): as the sequence (P43220 24-463 G168S limits assumed) above, with S145G, L237F counted along it

| EC50 (human GLP-1R [1]; read-out: Assay 1 EC50) [nM] | Emax (human GLP-1R [1]) [%] | EC50 (human GLP-1R [2]) [nM] | Emax (human GLP-1R [2]) [%] | EC50 (human GLP-1R [1]; Assay 1 EC50 (nM)) [nM] | Structure (SMILES) |
| --- | --- | --- | --- | --- | --- |
| 180 | 78 | 3500 | 90 | – | Cn1c(CN2CCC(c3cccc(OCc4ccc(C#N)cc4)n3)CC2)nc2ccc(C(=O)O)cc21 [Example 9A-15, 2-[(4-{6-[(4-cyanobenzyl)oxy]pyridin-2-yl}piperidin-1-yl)methyl]-1-methyl-1H-benzimidazole-6-carboxylic acid] |
| 190 | 62 | 5800 | 85 | – | O=C(O)c1ccc2nc(CN3CCC(c4cccc(OCc5ccc(Cl)cc5F)n4)CC3)n([C@H]3CCOC3)c2c1 [Example 10A-71] |
| 1.6 | 84 | 35 | 78 | – | N#Cc1ccc(COc2cccc(C3CCN(Cc4nc5ccc(C(=O)O)cc5n4Cc4ccon4)CC3)n2)c(F)c1 [Example 10A-65, 2-[(4-{6-[(4-cyano-2-fluorobenzyl)oxy]pyridin-2-yl}piperidin-1-yl)methyl]-1-(1,2-oxazol-3-ylmethyl)-1H-benzimidazole-6-carboxylic acid] |
| – | 71 | 1600 | 82 | 36 | COCCn1c(CN2CCN(c3cccc(OCc4ccc(Cl)cc4F)n3)CC2C(F)(F)F)nc2ccc(C(=O)O)cc21 (single isomer, unassigned; enantiomer 2) [Example 12A-02, 2-((4-(6-((4-Chloro-2-fluorobenzyl)oxy)pyridin-2-yl)-2-(trifluoromethyl)piperazin-1-yl)methyl)-1-(2-methoxyethyl)-1H-benzo[d]imidazole-6-carboxylic acid, enantiomer 2] |
| 0.47 | 77 | 5 | 94 | – | CCn1cncc1Cn1c(CN2CCC(c3cccc(OCc4ccc(F)cc4F)n3)CC2)nc2ccc(C(=O)O)cc21 [Example 10A-32, 2-[(4-{6-[(2,4-difluorobenzyl)oxy]pyridin-2-yl}piperidin-1-yl)methyl]-1-[(1-ethyl-1H-imidazol-5-yl)methyl]-1H-benzimidazole-6-carboxylic acid] |
| 19 | 76 | 530 | 97 | – | COCCn1c(CN2CCN(c3cccc(OCc4ccc(C#N)cc4)n3)CC2)nc2ccc(C(=O)O)cc21 [Example 1A-11, 2-[(4-{6-[(4-cyanobenzyl)oxy]pyridin-2-yl}piperazin-1-yl)methyl]-1-(2-methoxyethyl)-1H-benzimidazole-6-carboxylic acid] |
| 55 | 71 | 1700 | 99 | – | Cc1noc(CCn2c(CN3CCC(c4cccc(OCc5ccc(Cl)cc5F)n4)CC3)nc3ccc(C(=O)O)cc32)n1 [Example 11A-29, 2-[(4-{6-[(4-chloro-2-fluorobenzyl)oxy]pyridin-2-yl}piperidin-1-yl)methyl]-1-[2-(3-methyl-1,2,4-oxadiazol-5-yl)ethyl]-1H-benzim idazole-6-carboxylic acid] |
| 9.4 | 69 | 94 | 92 | – | O=C(O)c1ccc2nc(CN3CCC(c4cccc(OCc5ccc(Cl)cc5F)n4)CC3)n(Cc3cn[nH]c3)c2c1 [Example 11A-15, 2-[(4-{6-[(4-chloro-2-fluorobenzyl)oxy]pyridin-2-yl}piperidin-1-yl)methyl]-1-(1H-pyrazol-4-ylmethyl)-1H-benzimidazole-6-carboxylic acid] |
| 36 | 73 | 1100 | 79 | – | O=C(O)c1ccc2nc(CN3CCC(c4cccc(OCc5ccc(Cl)cc5F)n4)CC3)n(C3CCOC3)c2c1 (centres unmarked) [Example 11A-26, 2-[(4-{6-[(4-chloro-2-fluorobenzyl)oxy]pyridin-2-yl}piperidin-1-yl)methyl]-1-(tetrahydrofuran-3-yl)-1H-benzimidazole-6-carboxylic acid] |

| Structure (SMILES) | EC50 (human GLP-1R [1]; read-out: Assay 1 EC50) [nM] | Emax (human GLP-1R [1]) [%] | EC50 (human GLP-1R [2]) [nM] | Emax (human GLP-1R [2]) [%] | EC50 (human GLP-1R [1]; Assay 1 EC50 (nM)) [nM] |
| --- | --- | --- | --- | --- | --- |
| O=C(O)c1ccc2nc(CN3CCC(c4cccc(OCc5ccc(Cl)cc5F)n4)CC3)n(CCN3CCOC3=O)c2c1 [Example 11A-20] | 15 | – | 270 | – | – |
